Reference: patent publication US20040147434A1, “Use of enzyme inhibitors of the dipeptidypeptidase iv (ec3.3.14.5) in addition to the aminopeptidase n (ec 3.4.11.2), individually or in a combination thereof, and pharmaceutical preparations thereof for the prevention and/or therapy of ischaemia-caused acute and chronic neurodegenerative process …” (priority 2001, published 2004)

Tests used:
[1] = test system: peripheric mononuclear cells (MNC) or T lymphocytes; settings: simultaneous and separate administration of inhibitors of DP IV and APN; cited from earlier work
hippocampal neurons = assay: Neuroprotection in organotypical hippocampus slices after 40 min oxygen and glucose deprivation (propidium iodide fluorescence); assay type: cell-based, rat; settings: exclusively actinonine (10 μm), 24 h before, during and 24 h after ischemia; n=5 experiments
Method: FIG. 2: Protective effect of inhibitors of DP IV (I63) and APN (actinonine) on the survival of hippocampal neurons after a transient deprivation of oxygen and glucose: There are shown in the FIG. transmission photographs (respective left sides) and fluorescence photographs (respective right sides) of hippocampus slices 24 h after an experimental ischemia. The intensity of the red fluorescence corresponds to the neuronal cell damage (B, D). The slices shown in FIGS. 2A and 2B were subjected to a 40 min deprivation of oxygen and glucose in the absence of DP IV or APN inhibitors. […] The protective effect occurring at a simultaneous application of I63 and actinonine is significant (P=0,0000; calculated by means of a two side heteroscedastic t test) and is about 62%.
Organotypical hippocampus slices were prepared and cultivated according to Striggow F et al. (Striggow, F, Riek M, Breder J, Henrich-Noak P, Reymann K G, Reiser G (2000). The protease thrombin is an endogenous mediator of hippocampal neuroprotection against ischemia at low concentrations but causes degeneration at high concentrations. Proc. Natl. Acad. Sci. (USA) 97: 2264-2269). […] Only after said time, there occurrs a characteristic red fluorescence, the intensity of which is proportional to the neuronal cell damage. […]

Structure (SMILES)	DNA synthesis and proliferation of human immune cells [1]	protective effect on the survival of hippocampal neurons after transient ischemia (hippocampal neurons)
N[C@@H](CCCCNC(=O)OCc1ccc([N+](=O)[O-])cc1)C(=O)N1CCSC1 [I49, Lys[Z(NO2)] thiazolidide]	inhibited	–
CCCCC[C@H](CC(=O)NO)C(=O)N[C@H](C(=O)N1CCC[C@H]1CO)C(C)C [actinonine]	inhibited	about 34%
